Data as given in doi:10.1101/2020.10.22.350827v1 (biorxiv, 2020).
Residue numbers refer to the chain shown, from its start.

Tests used:
[1] = target: T1, Nluc-A1R (adenosine A1 receptor) (Homo sapiens, UniProt P30542, I175A); assay: NanoBRET competition binding, live HEK […] cells; assay type: cell-based
T1 sequence (P30542 1-326 I175A): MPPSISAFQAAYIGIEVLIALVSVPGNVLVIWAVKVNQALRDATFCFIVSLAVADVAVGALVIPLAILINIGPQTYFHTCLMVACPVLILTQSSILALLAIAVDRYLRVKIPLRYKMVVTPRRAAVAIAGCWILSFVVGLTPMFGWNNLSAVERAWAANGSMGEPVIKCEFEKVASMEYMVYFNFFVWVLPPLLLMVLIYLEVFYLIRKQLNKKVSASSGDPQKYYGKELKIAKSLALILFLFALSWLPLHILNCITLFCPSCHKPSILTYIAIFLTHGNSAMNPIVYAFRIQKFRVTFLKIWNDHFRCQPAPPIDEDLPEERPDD

[2] = target: T2, Nluc-A1R (adenosine A1 receptor) (Homo sapiens, UniProt P30542); assay: NanoBRET competition binding, live HEK […] cells; assay type: cell-based
T2 sequence (P30542 1-326): T1 sequence (P30542 1-326 I175A) with A175I

[3] = target: T3, Nluc-A1R (adenosine A1 receptor) (Homo sapiens, UniProt P30542, T257A); assay: NanoBRET competition binding, live HEK […] cells; assay type: cell-based
T3 sequence (P30542 1-326 T257A): T1 sequence (P30542 1-326 I175A) with A175I, T257A

[4] = target: T4, Nluc-A1R (adenosine A1 receptor) H264A (Homo sapiens, UniProt P30542, H264A); assay: cell-based; set-up: species or system HEK 293
T4 sequence (P30542 1-326 H264A): T1 sequence (P30542 1-326 I175A) with A175I, H264A

[5] = target: T5, Nluc-A1R (adenosine A1 receptor) S267A (Homo sapiens, UniProt P30542, S267A); assay: cell-based; set-up: species or system HEK 293
T5 sequence (P30542 1-326 S267A): T1 sequence (P30542 1-326 I175A) with A175I, S267A

[6] = target: T6, Nluc-A1R (adenosine A1 receptor) Q9A (Homo sapiens, UniProt P30542, Q9A); assay: cell-based; set-up: species or system HEK 293
T6 sequence (P30542 1-326 Q9A): T1 sequence (P30542 1-326 I175A) with Q9A, A175I

[7] = target: T7, Nluc-A1R (adenosine A1 receptor) L253F (Homo sapiens, UniProt P30542, L253F); assay: cell-based; set-up: species or system HEK 293
T7 sequence (P30542 1-326 L253F): T1 sequence (P30542 1-326 I175A) with A175I, L253F

Structure (SMILES): OC[C@H]1O[C@@H](n2cnc3c(N[C@@H]4CCC[C@H]4O)ncnc32)[C@H](O)[C@@H]1O [compound 6, HOCPA]
- Ki [1]: 2.19 µM
- Ki [2]: 0.427 µM
- Ki [3]: 0.115 µM
- Ki [4]: 0.955 µM
- Ki [5]: 1.02 µM
- Ki [6]: 1.95 µM
- Ki [7]: 1.62 µM
